Entries after “also recorded” stand apart in the source; their conditions may differ. Read-outs that look alike come from different tables or passages of the source.
Legend:
[1] = test system: EAE model in mice; test: Suppression of PLP (139-151)-induced relapsing-remitting EAE, daily clinical score; format: in vivo, SJL/J female mice; settings: monotherapy vs control (vehicle); CBD 5 mg/kg i.p., Copaxone 1 mg/mouse s.c., daily five times a week; FIG. 1-3
Source text: SJL/J female mice were purchased from Harlen. Mice at the age of 6-7 weeks old were used to the in the experiments described below. All the experiments were done in accordance with the protocol approved by the Ethics Committee of the Hebrew University of Jerusalem. The mice were housed in cages with free access to food and water. They were maintained in 12 hr. light/dark cycle at room temperature.
Mice were immunized with PLP (139-151) emulsified in CFA together with pertussis vaccine according to the method described in Hooke Laboratories protocols (http://hookelabs.com/protocols/eaeAISJL). PLP is used to induce relapsing-remitting (RR)-EAE model. In the EAE experiments, SJL/J female mice at an age of 6-7 weeks old were used. Mice were observed daily for the appearance of neurological paralytic symptoms (6-7 mice/group), and were scored in scale from 0-5 denoting as follows:
Raw p-value were obtained from exact one-tail Mann Whitney tests and adjusted for multiple comparisons (within each experiment) using Holm modification of the Bonferroni correction
(§1) Histology Following s.c. injection of PLP (139-151) mixed with CFA as well as two pertussis-toxin injections and appearance of paralysis signs in the mice (usually after 9-11 days after initiation of EAE) treatment of mice began.
The treatments were given daily, five times a week and usually continued for about 60 days. […]

[2] = test system: infiltration of immune cells into the spinal cord; test: Histology of immune cell infiltration into the spinal cord in EAE mice (eosin/hematoxylin); format: in vivo, SJL female mice; settings: sixty days following injection of PLP; vs control non-treated mice
Protocol: as §1
(§2) The treatments were given daily, five times a week and usually continued for about 60 days. GA were given s.c. (at an injection dose of 1 mg/mouse), and CBD at a dose of 5 mg/kg were administrated i.p. (intraperitoneal).
Studies of monotherapies (CBD or Copaxone) and the combination therapy (CBD plus Copaxone) also included histological studies of infiltration of immune cells into the spinal cord in EAE mice (i.e., MS core pathology).

[3] = test system: skin at the site of subcutaneous Copaxone injection; test: Cutaneous wound at the site of repeated s.c. Copaxone injection in EAE mice; format: in vivo, SJL/J female mice
Protocol: as §2
In mice treated with the Copaxone only (2 out of 7 mice), a skin lesion developed on the back at the site of repeated Copaxone injections.

[4] = test system: acute EAE; settings: oral GA, mice; cited from earlier work
[5] = test system: acute EAE; settings: oral GA, rhesus monkeys; cited from earlier work
[6] = test system: acute EAE; settings: oral GA, rats; cited from earlier work

| Molecule | clinical score [1] | infiltration of immune cells into the white section of the spinal cord [2] | skin lesions (cutaneous wound) at the injection site, in words ([3]; CBD 5 mg/kg i.p. with or without Copaxone 1 mg/mouse s.c.) | effect on acute EAE [4] | effect on acute EAE [5] | effect on acute EAE [6] | skin lesion developed at the site of repeated Copaxone injections (incidence) ([3]; Copaxone only, 1 mg/mouse s.c.) |
| --- | --- | --- | --- | --- | --- | --- | --- |
| C=C(C)[C@@H]1CCC(C)=C[C@H]1c1c(O)cc(CCCCC)cc1O [CBD, 2-[(1R,6R)-6-isopropenyl-3-methylcyclohex-2-en-1-yl]-5-pentylbenzene-1,3-diol] | significant decrease in clinical score; also recorded: significantly decreased clinical score | almost total reduction of such infiltration | No suchlesions were observed | – | – | – | – |
| Glatiramer acetate [Copaxone] | significantly decreased clinical score | almost total reduction of such infiltration | – | suppress acute EAE | suppress acute EAE | suppress acute EAE | 2 out of 7 |

— patent US20190314297A1, “COMBINATION THERAPY OF CBD AND COPAXONE” (TO PHARMACEUTICALS LLC, priority 2016, published 2019)
